From PMC10644342, “Improved Antibacterial Activity of 1,3,4-Oxadiazole-Based Compounds That Restrict Staphylococcus aureus Growth Independent of LtaS Function” (ACS Infectious Diseases, 2023)
Values after ≈ are worked out from the molar mass of the structure shown.

What was measured:
[1] = system: B. subtilis (W168); assay: MIC, broth microdilution (CLSI); format: cell-based; settings: Bacillus subtilis
Protocol: (§1) B. subtilis, staphylococcal, and enterococcal strains were grown in Mueller Hinton broth (MHB), while streptococcal strains were grown in MHB supplemented with 5% laked horse blood. All strains were grown for 18 h at 37 °C. The overnight cultures were subsequently subcultured 1:200 and grown to the exponential phase (OD600nm = 0.5–0.6) in fresh broth. 1771 and its derivatives 9–14 were reconstituted in DMSO and further diluted by performing a 1:2 serial dilution ranging between 256 and 0.125 μg/mL in a 96-well microtiter plate. One hundred microliters of 0.5 McFarland standardized inoculum (approximately equal to 5 × 10^5 cfu) were then dispensed into each well in the 96-well microtiter plate. The plate was incubated for 18 h at 37 °C.

[2] = system: S. aureus strain SH1000; assay: Biofilm prevention, crystal violet assay; format: cell-based, Staphylococcus aureus; settings: for concentration causing a 50% reduction in biofilm formation: SH1000, 24 h
Protocol: An indication of the biofilm prevention capabilities of 1771 and its derivatives 9–14 was achieved through the application of the crystal violet assay. S. aureus strain SH1000 and S. epidermidis strain RP62A were used, as they are strong biofilm formers. Overnight cultures were diluted 1:200 in fresh TSB containing 0.5% glucose (TSB-G), and 100 μL was added to individual wells in a 96-well microtiter plate. One hundred microliters of 1771 and 9–14 were diluted in TSB-G and added to bacteria at a final concentration ranging from 256 to 0.25 μg/mL with subsequent incubation for 24 h at 37 °C in a static incubator. Following incubation, biofilms were washed four times with ddH2O before being stained with 150 μL of 0.1% crystal violet for 30 min at room temperature. Following a further four washes in ddH2O, wells were resuspended in 200 μL of 7% acetic acid. The absorbance intensity of the crystal violet was measured at abs595nm in a Sunrise plate reader. Biomass formed was measured as a percentage of the no-compound control.

[3] = system: S. aureus; assay: Checkerboard MIC analysis with antistaphylococcal antibiotics (FIC index); format: cell-based; settings: lowest possible value
Protocol: Antibiotic combination 1771 Compound 13
Figure S1. Checkerboard analysis of 1771 and compound 13 in combination with clinically relevant antibiotics. Checkerboard analysis was repeated twice for each antibiotic combination, and the mean bacterial growth (OD 600nm) plotted as a heat map with 1771/compound 13 concentration of the y-axis and test antibiotic concentration on the x axis.
FIC indexes were calculated for each combination and the lowest possible value presented. […]
Supplementary Materials and Methods
Synergistic activity with clinically relevant antibiotics
The synergistic ability of 1771 and 13 was achieved using the chequerboard micro-broth dilution method. Antibiotic partners tested included: oxacillin, daptomycin, vancomycin, gentamicin, and linezolid with starting concentrations of 256 µg/ml, 8 µg/ml, 8 µg/ml, 4 µg/ml, and 8 µg/ml respectively. Overnight cultures were sub-cultured 1:200 in fresh MHB and grown to optical density of OD600nm of 0.5-0.6 and prepared according to the MIC analysis. Following an 18 h incubation at 37 °C the sum of the fractional inhibitory […]
using the equation ΣFIC = FICA +FICB = (MICA in combination with B/MICA) + (MICB in combination with A/MICB). The resulting value was interpreted according to the following rules: synergistic (FIC ≤ 0.5), additive (FIC >0.5, <1) or indifferent (FIC ≥ 1 <4). […]

[4] = system: HepG2 human liver cancer cells; assay: HepG2 liver cell toxicity assay (MTT); format: cell-based; settings: for IC50: Homo sapiens, 24 h incubation, MTT, concentration responsible for 50% HepG2 cell death
Protocol: HepG2 human liver cancer cells (ECACC: Cat no. 85011430) were grown in Dulbecco’s Modified Eagle’s Medium (DMEM; with 4.5 g/L glucose) supplemented with 10% (v/v) fetal bovine serum, 1% (v/v) minimal essential media, and 0.2% (v/v) penicillin/streptomycin/L-glutamine solution. Cells were then seeded at a concentration of 10,000 cells per well and allowed to attach and grow for 18 h. Following this, the medium was aspirated away and replaced with a medium containing a range of concentrations of 1771 and compound 13, and the cells were grown for a further 24 h. After this, cell viability was assessed using the MTT (3-[4,5-dimethylthiazol-2-yl]-2,5-diphenyltetrazolium bromide) assay. 1771 or 13 containing growth media was aspirated away and replaced with 100 μL of 1 mg/mL MTT (in growth media) and incubated for 50 min at 37 °C. Subsequently, this solution was removed, and 150 μL of isopropanol was added to the cells and allowed to incubate at RT with gentle rocking on an orbital shaker. Absorbance at abs595nm was recorded using a Sunrise plate reader, and the % cell viability was calculated compared to a no-compound control.

[5] = system: MRSA strain LAC; assay: Minimum bactericidal concentration; format: cell-based, Staphylococcus aureus; settings: for classification bactericidal/bacteriostatic: time kill and MBC
Protocol: For an antibiotic with an MBC ≤ 4×, the MIC was considered to be bactericidal, whereas with an MBC > 4×, the MIC was considered to be bacteriostatic.[24] […] Percentage survival was calculated according to the starting inoculum of 5 × 10^5 cfu at time 0 h.

[6] = system: S. aureus wild type, clpX, ltaS, tarO mutants and ltaS overexpression strains; assay: MIC against LtaS deletion and overexpression strains; format: cell-based, Staphylococcus aureus
Protocol: S. aureus, S. epidermidis, E. faecalis, and E. faecium strains were routinely cultivated on tryptic soy agar (TSA) and grown for 18 h at 37 °C. S. aureus single colonies were subsequently transferred into 2 mL of tryptic soy broth (TSB) and grown for a further 18 h at 37 °C while being shaken at 180 rpm. S. pyogenes, S. agalactiae, and S. dysgalactiae strains were routinely cultured on TSA supplemented with 5% sheep blood and grown for 18 h at 37 °C with 5% CO2. E. coli was grown in LB broth at 37 °C. For LtaS-deficient strains, TSB was supplemented with 0.5 M NaCl to provide an osmotically balanced environment and instead grown at 30 °C. For strains harboring the pRMC2 tetracycline inducible vector,[61] the growth medium was supplemented with 10 μg/mL chloramphenicol and […] anhydrotetracycline hydrochloride (Sigma). Phenylalanine-arginine β-naphthylamide (PAβN) (Sigma) was dissolved in sterile water.
as §1
For overexpression studies, full-length ltaS was amplified by PCR using MRSA strian LAC genomic DNA, primer pair LtaS-FW: 5′-[…]-3′ and LtaS-RV: 5′-[…]-3′, and Phusion High-Fidelity DNA Polymerase (Thermo Fisher). The resulting PCR product was cloned into the tetracycline inducible plasmid pRMC2 using SacI and KpnI restriction sites and T4 ligase (NEB). The cloned vector was subsequently transformed into RN4220 followed by LAC through electroporation.

[7] = Staphylococcus aureus, 8325-4 (wild type), clpX set
[8] = Staphylococcus aureus, NEWMAN, Newman ΔtarO
[9] = Staphylococcus aureus, NEWMAN, Newman ΔtarO pRMC2 (empty vector)
[10] = Staphylococcus aureus, NEWMAN, Newman ΔtarO pltaS (ltaS overexpression)
[11] = Staphylococcus aureus, SA564 (wild type)
[12] = Staphylococcus aureus, SA564 clpX knockout mutant

| SMILES | MIC [1] [µg/mL] | concentration causing a 50% reduction in biofilm formation [2] [µg/mL] | FIC index ([3]; combination with daptomycin) | FIC index ([3]; combination with gentamicin) | FIC index ([3]; combination with linezolid) | FIC index ([3]; combination with oxacillin) | FIC index ([3]; combination with vancomycin) | IC50 [4] [µg/mL] | classification bactericidal/bacteriostatic [5] | MIC [6, 7] [µg/mL] | MIC ([6]; Staphylococcus aureus, NEWMAN) [µg/mL] | MIC [6, 8] [µg/mL] | MIC [6, 9] [µg/mL] | MIC [6, 10] [µg/mL] | MIC [6, 11] [µg/mL] | MIC [6, 12] [µg/mL] | further results |
| --- | --- | --- | --- | --- | --- | --- | --- | --- | --- | --- | --- | --- | --- | --- | --- | --- | --- |
| O=C(COC(=O)Cc1coc2ccc3ccccc3c12)Nc1nnc(-c2ccc(S(F)(F)(F)(F)F)cc2)o1 [Compound 13, 2-Oxo-2-((5-(4-(pentafluoro-l6-sulfaneyl)phenyl)-1,3,4-oxadiazol-2-yl)amino)ethyl 2-(Naphtho[2,1-b]furan-1-yl)acetate] | 0.5 to 1 (≈ 0.903 to 1.81 µM) | 0.25 | 0.75 | 0.75 | 0.515 | 0.75 | 1 | 27.3 (≈ 49.3 µM) | bacteriostatic | 0.5 to 1 (≈ 0.903 to 1.81 µM) | 1 (≈ 1.81 µM) | 1 (≈ 1.81 µM) | 1 (≈ 1.81 µM) | 1 (≈ 1.81 µM) | 0.25 (≈ 0.452 µM) | 0.25 (≈ 0.452 µM) | biofilm prevention compared with 1771 ([2]; SH1000): better than 1771; minimal bactericidal concentration (MBC) ([5]; 8 to 128 μg/mL (up to 256× MIC)): could not be elucidated; MIC ([6]; 8325-4 (wild type), clpX set): 0.5 to 1 µg/mL; MIC ([6]; SA564clpX knockout and ltaSH476Q mutant): 0.25 µg/mL (≈ 0.452 µM); MIC ([6]; Staphylococcus aureus, 8325-4 clpX knockout and ltaS382STOP mutant): 0.25 µg/mL (≈ 0.452 µM); MIC ([6]; Staphylococcus aureus, 8325-4 clpX knockout mutant): 0.25 µg/mL (≈ 0.452 µM); MIC ([6]; Staphylococcus aureus, JE2 clpXI265E mutant): 0.25 µg/mL (≈ 0.452 µM) |
| O=C(COC(=O)Cc1coc2ccc3ccccc3c12)Nc1nnc(-c2ccccc2)o1 [Compound 1771, 2-Oxo-2-((5-phenyl-1,3,4-oxadiazol-2-yl)amino)ethyl 2-(Naphtho[2,1-b]furan-1-yl)acetate, reference compound] | 4 to 8 (≈ 9.36 to 18.7 µM) | 4 | 0.625 | 0.375 | 1 | 0.75 | 1 | 24.7 (≈ 57.8 µM) | bacteriostatic | 16 (≈ 37.4 µM) | 16 (≈ 37.4 µM) | 16 (≈ 37.4 µM) | 16 (≈ 37.4 µM) | 16 (≈ 37.4 µM) | 16 (≈ 37.4 µM) | 16 (≈ 37.4 µM) | selectivity index (IC50/MIC50) ([4]; HepG2 IC50 / S. aureus MIC50): 3.08; MIC ([6]; Staphylococcus aureus, JE2 (wild type)): 16 µg/mL (≈ 37.4 µM); MIC ([6]; Staphylococcus aureus, JE2 clpXI265E and ltaS339STOP mutant): 16 µg/mL (≈ 37.4 µM); MIC ([6]; Staphylococcus aureus, SA564clpX knockout and ltaSH476Q mutant): 16 µg/mL (≈ 37.4 µM) |
